Columns and labels:
Assay in all cases: relative viability (nuclei count vs DMSO), 5 days (fraction); higher = more cells survive
[1] = compound: CC[C@H](Nc1ncnc2[nH]cnc12)c1nc2cccc(F)c2c(=O)n1-c1ccccc1 [Idelalisib] + COc1cc2c(Oc3ccc(NC(=O)C4(C(=O)Nc5ccc(F)cc5)CC4)cc3F)ccnc2cc1OCCCN1CCOCC1 [Foretinib] (partner 0.25 µM)
Procedure, shortened: (§1)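 Medians of duplicate plates are given as relative viability. That measure is the nuclei count in treated wells divided by the count in vehicle wells. Counts were taken on 4× images of lung cancer cell lines in 1536-well plates, 5 days after pin-tool dosing the day after seeding with one drug alone or a fixed anchor-drug dose plus five library-drug doses (not always all listed) in √10 steps.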

[2] = compound: CC[C@H](Nc1ncnc2[nH]cnc12)c1nc2cccc(F)c2c(=O)n1-c1ccccc1 [Idelalisib] + CS(=O)(=O)N1CCN(Cc2cc3nc(-c4cccc5[nH]ncc45)nc(N4CCOCC4)c3s2)CC1 [Pictilisib] (partner 1 µM)
Procedure, shortened: as §1

[3] = compound: Nc1nc2[nH]cc(CCc3ccc(C(=O)N[C@@H](CCC(=O)O)C(=O)O)cc3)c2c(=O)[nH]1 [Pemetrexed] + Cc1nc(NC(=O)N2CCC[C@H]2C(N)=O)sc1-c1ccnc(C(C)(C)C(F)(F)F)c1 [Alpelisib] (partner 2 µM)
Procedure, shortened: as §1

[4] = compound: Nc1nc2[nH]cc(CCc3ccc(C(=O)N[C@@H](CCC(=O)O)C(=O)O)cc3)c2c(=O)[nH]1 [Pemetrexed] + Cc1nc(Nc2ncc(C(=O)Nc3c(C)cccc3Cl)s2)cc(N2CCN(CCO)CC2)n1 [Dasatinib] (partner 0.075 µM)
Procedure, shortened: as §1

| Cell Line | relative viability ([1]; first compound 0.04 µM) | relative viability ([1]; first compound 0.1265 µM) | relative viability ([1]; first compound 1.265 µM) | relative viability ([1]; first compound 4 µM) | relative viability ([2]; first compound 0.04 µM) | relative viability ([2]; first compound 0.1265 µM) | relative viability ([2]; first compound 0.4 µM) | relative viability ([2]; first compound 1.265 µM) | relative viability ([2]; first compound 4 µM) | relative viability ([3]; first compound 0.006325 µM) | relative viability ([3]; first compound 0.02 µM) | relative viability ([3]; first compound 0.06325 µM) | relative viability ([3]; first compound 0.2 µM) | relative viability ([4]; first compound 0.002 µM) | relative viability ([4]; first compound 0.006325 µM) | relative viability ([4]; first compound 0.02 µM) | relative viability ([4]; first compound 0.06325 µM) | relative viability ([4]; first compound 0.2 µM) | relative viability ([1]; first compound 0.4 µM) | relative viability ([3]; first compound 0.002 µM) |
| --- | --- | --- | --- | --- | --- | --- | --- | --- | --- | --- | --- | --- | --- | --- | --- | --- | --- | --- | --- | --- |
| NCI-H647 | 1.18 | 1.35 | 0.895 | 0.746 | 0.448 | 0.452 | 0.475 | 0.377 | 0.393 | 1.02 | 1.3 | 0.836 | 0.296 | 0.151 | 0.16 | 0.175 | 0.156 | 0.127 | – | – |
| BEN | 0.751 | 0.567 | 0.856 | 0.661 | 0.559 | 0.517 | 0.531 | 0.609 | 0.523 | 1.02 | 1.03 | 0.989 | 0.774 | 0.374 | 0.288 | 0.345 | 0.303 | 0.349 | 0.539 | 1.09 |
| 201T | 1.09 | 1.07 | 1.11 | 0.993 | 0.686 | 0.712 | 0.59 | 0.736 | 0.661 | 1.05 | 1.03 | 1 | 0.955 | 0.59 | 0.554 | 0.592 | 0.559 | 0.507 | 0.741 | 1.07 |
| LC-2-ad | 0.978 | 0.857 | 0.943 | 0.85 | 0.534 | 0.516 | 0.415 | 0.467 | 0.417 | 0.936 | 0.833 | 0.232 | 0.187 | 0.454 | 0.525 | 0.347 | 0.208 | 0.222 | 0.733 | 0.888 |
| LCLC-97TM1 | 1.1 | 0.961 | 1.03 | 0.776 | 0.236 | 0.182 | – | 0.231 | 0.152 | 0.2 | 0.257 | 0.173 | 0.237 | 0.743 | 0.892 | 0.967 | 0.797 | 0.588 | 0.877 | 0.265 |
